This assay relates to HCV 1b_Huh-Luc/Neo-ET cell line (genotype 1b replicon in Huh 7 cells). Nature of the assay: HCV replicon assay (luciferase readout). The assay is classed as cell-based. The following applies: Hepatitis C virus, HCV 1b replicon in Huh 7 cells, 72 h incubation, EC50 range class, read-out: Inhibition of HCV genotype 1b. The procedure:
Biological activity of the compounds of the invention was determined using an HCV replicon assay. The HCV 1b_Huh-Luc/Neo-ET cell line persistently expressing a bicistronic genotype 1b replicon in Huh 7 cells was obtained from ReBLikon GMBH. This cell line was used to test compound inhibition using luciferase enzyme activity readout as a measurement of compound inhibition of replicon levels.
On Day 1 (the day after plating cells), each compound is added in triplicate to the cells. Plates are incubated for 72 h prior to determining luciferase levels. Enzyme activity was measured using a Bright-Glo Kit (cat. number E2620) manufactured by Promega Corporation. The following equation was used to generate a percent control value for each compound. % Control=(Compound Luciferase Level/Control Luciferase Level)*100
The EC50 value was determined using GraphPad Prism and the following equation: Y=Bottom asymptote+(Top asymptote-Bottom asymptote)/(1+10^((Log EC50−X)*HillSlope))
EC50 values of compounds are determined several times in the replicon assay to generate average EC50 values. […]
In general terms: Replicon systems follow genome replication, usually without infectious particles.

Take `C#CC[C@H](NC(=O)OC)C(=O)N1CCC[C@H]1c1ncc(-c2ccc3c(c2)C(C)(C)c2ccc(-c4ccc5nc([C@@H]6CCCN6C(=O)[C@H](CC#C)NC(=O)OC)[nH]c5c4)cc2O3)[nH]1` [Compound 150]: the EC50 was below 1 nM. Turning to `COC(=O)N[C@H](C(=O)N1CCC[C@H]1c1ncc(-c2ccc3c(c2)Oc2nnc(-c4cnc([C@@H]5CCCN5C(=O)[C@@H](NC(=O)OC)C(C)C)[nH]4)cc2O3)[nH]1)C(C)C` [Compound 151], the EC50 fell in the range of 1 to 9.9 nM. For `COC(=O)N[C@H](C(=O)N1CCC[C@H]1c1ncc(-c2ccc3nc4cc(-c5cnc([C@@H]6CCCN6C(=O)[C@@H](NC(=O)OC)C(C)C)[nH]5)ccc4nc3c2)[nH]1)C(C)C` [Example 1], the EC50 is below 1 nM. Then `COC(=O)N[C@@H](C(=O)N1CCC[C@H]1c1ncc(-c2ccc3nc4cc(-c5cnc([C@@H]6CCCN6C(=O)[C@H](NC(=O)OC)c6ccccc6)[nH]5)ccc4nc3c2)[nH]1)c1ccccc1` [Example 2], with below 1 nM. Then `COC(=O)N[C@H](C(=O)N1CCC[C@H]1c1ncc(-c2ccc3c(c2)Oc2ccc(-c4cnc([C@@H]5CCCN5C(=O)[C@@H](NC(=O)OC)C(C)C)[nH]4)cc2O3)[nH]1)C(C)C` [Example 3], with below 1 nM. Then `COC(=O)N[C@H](C(=O)N1CCC[C@H]1c1ncc(-c2ccc3c(c2)Cc2cc(-c4cnc([C@@H]5CCCN5C(=O)[C@@H](NC(=O)OC)C(C)C)[nH]4)ccc2O3)[nH]1)C(C)C` [Example 4], with 10 to 999 nM; and `COC(=O)N[C@@H](C(=O)N1CCC[C@H]1c1ncc(-c2ccc3c(c2)Cc2cc(-c4cnc([C@@H]5CCCN5C(=O)[C@H](NC(=O)OC)c5ccccc5)[nH]4)ccc2O3)[nH]1)c1ccccc1` [Example 5], with below 1 nM. Take `COC(=O)N[C@H](C(=O)N1CCC[C@H]1c1ncc(-c2ccc3c(c2)Cc2ccc(-c4cnc([C@@H]5CCCN5C(=O)[C@@H](NC(=O)OC)C(C)C)[nH]4)cc2O3)[nH]1)C(C)C` [Example 6]: the EC50 is below 1 nM. In the case of `COC(=O)N[C@H](C(=O)N1CCC[C@H]1c1ncc(-c2ccc3c(c2)CCc2cc(-c4cnc([C@@H]5CCCN5C(=O)[C@@H](NC(=O)OC)C(C)C)[nH]4)ccc2O3)[nH]1)C(C)C` [Example 7], the EC50 was below 1 nM. Under `COC(=O)N[C@H](C(=O)N1CCC[C@H]1c1ncc(-c2ccc3c(=O)c4cc(-c5cnc([C@@H]6CCCN6C(=O)[C@@H](NC(=O)OC)C(C)C)[nH]5)ccc4oc3c2)[nH]1)C(C)C` [Example 8] stands below 1 nM; under `CC(C)(C)OC(=O)N1CCC[C@H]1c1ncc(-c2ccc3c(=O)c4cc(-c5cnc([C@@H]6CCCN6C(=O)OC(C)(C)C)[nH]5)ccc4oc3c2)[nH]1` [Example 9], 10 to 999 nM. Under `COC(=O)N[C@H](C(=O)N1CCC[C@H]1c1ncc(-c2ccc3c(c2)Oc2ccc(-c4cnc([C@@H]5CCCN5C(=O)[C@@H](NC(=O)OC)C(C)C)[nH]4)cc2C3(C)C)[nH]1)C(C)C` [Example 10] stands below 1 nM; under `COC(=O)N[C@H](C(=O)N1CCC[C@H]1c1ncc(-c2ccc3c(c2)c(=O)c2ccc(-c4cnc([C@@H]5CCCN5C(=O)[C@@H](NC(=O)OC)C(C)C)[nH]4)cc2n3C)[nH]1)C(C)C` [Example 11], below 1 nM. For `COC(=O)N[C@H](C(=O)N1CCC[C@H]1c1ncc(-c2ccc3c(c2)CCc2ccc(-c4cnc([C@@H]5CCCN5C(=O)[C@@H](NC(=O)OC)C(C)C)[nH]4)cc2O3)[nH]1)C(C)C` [Example 12], the EC50 is below 1 nM. As to `COC(=O)N[C@H](C(=O)N1CCC[C@H]1c1ncc(-c2ccc3c(c2)CN(C)c2ccc(-c4cnc([C@@H]5CCCN5C(=O)[C@@H](NC(=O)OC)C(C)C)[nH]4)cc2CN3C)[nH]1)C(C)C` [Example 13], the EC50 was below 1 nM. With `COC(=O)N[C@H](C(=O)N1CCC[C@H]1c1ncc(-c2ccc3c(c2)Oc2ccc(-c4cnc([C@@H]5CCCN5C(=O)[C@@H](NC(=O)OC)C(C)C)[nH]4)cc2C(=O)N3)[nH]1)C(C)C` [Example 14], the EC50 was 10 to 999 nM. On to `COC(=O)N[C@H](C(=O)N1CCC[C@H]1c1ncc(-c2ccc3c(=O)c4cc(-c5cnc([C@@H]6CCCN6C(=O)[C@H](NC(=O)OC)c6ccccc6)[nH]5)ccc4oc3c2)[nH]1)C(C)C` [Example 15], for which the EC50 is below 1 nM. Take `COC(=O)N[C@H](C(=O)N1CCC[C@H]1c1ncc(-c2ccc3c(=O)c4cc(-c5cnc([C@@H]6CCCN6C(=O)[C@@H](NC(=O)OC)C6CCOCC6)[nH]5)ccc4oc3c2)[nH]1)C(C)C` [Example 16]: the EC50 is below 1 nM. For the molecule `COC(=O)N[C@H](C(=O)N1CCC[C@H]1c1ncc(-c2ccc3oc4cc(-c5cnc([C@@H]6CCCN6C(=O)[C@@H](NC(=O)OC)C6CCOCC6)[nH]5)ccc4c(=O)c3c2)[nH]1)C(C)C` [Example 17], the EC50 is below 1 nM. Under `COC(=O)N[C@H](C(=O)N1CCC[C@H]1c1ncc(-c2ccc3oc4cc(-c5cnc([C@@H]6CCCN6C(=O)[C@H](NC(=O)OC)c6ccccc6)[nH]5)ccc4c(=O)c3c2)[nH]1)C(C)C` [Example 18] stands below 1 nM. Take `COC(=O)N[C@H](C(=O)N1CCC[C@H]1c1ncc(-c2ccc3c(=O)c4cc(-c5cnc([C@@H]6CCCN6C(=O)[C@H](NC(=O)OC6CCOCC6)c6ccccc6)[nH]5)ccc4oc3c2)[nH]1)C(C)C` [Example 19]: the EC50 is below 1 nM. Under `COC(=O)N[C@@H](C)C(=O)N1CCC[C@H]1c1ncc(-c2ccc3oc4cc(-c5cnc([C@@H]6CCCN6C(=O)[C@@H](NC(=O)OC)C(C)C)[nH]5)ccc4c(=O)c3c2)[nH]1` [Example 20] stands below 1 nM; under `COC(=O)N[C@H](C(=O)N1CCC[C@H]1c1ncc(-c2ccc3oc4cc(-c5cnc([C@@H]6CCCN6C(=O)[C@H](NC(=O)OC6CCOCC6)c6ccccc6)[nH]5)ccc4c(=O)c3c2)[nH]1)C(C)C` [Example 21], below 1 nM; under `COC(=O)N[C@H](C(=O)N1CCC[C@H]1c1ncc(-c2ccc3oc4cc(-c5cnc([C@@H]6CCCN6C(=O)[C@@H](NC(=O)OC)C(C)C)[nH]5)c(F)cc4c(=O)c3c2)[nH]1)C(C)C` [Example 22], below 1 nM. Under `COC(=O)N[C@H](C(=O)N1CCC[C@H]1c1ncc(-c2ccc3oc4cc(-c5cnc([C@@H]6CCCN6C(=O)[C@@H](NC(=O)OC)C6CCOCC6)[nH]5)c(F)cc4c(=O)c3c2)[nH]1)C1CCOCC1` [Example 23] stands below 1 nM. `COC(=O)N[C@@H](C(=O)N1CCC[C@H]1c1ncc(-c2ccc3oc4cc(-c5cnc([C@@H]6CCCN6C(=O)[C@H](NC(=O)OC)c6ccccc6)[nH]5)c(F)cc4c(=O)c3c2)[nH]1)c1ccccc1` [Example 24]: the EC50 was below 1 nM.

For the molecule `O=C(N[C@@H](C(=O)N1CCC[C@H]1c1ncc(-c2ccc3oc4cc(-c5cnc([C@@H]6CCCN6C(=O)[C@H](NC(=O)OC6CCOCC6)c6ccccc6)[nH]5)c(F)cc4c(=O)c3c2)[nH]1)c1ccccc1)OC1CCOCC1` [Example 25], the EC50 is below 1 nM. `COC(=O)N[C@H](C(=O)N1CCC[C@H]1c1ncc(-c2ccc3c(c2)Oc2ccc(-c4cnc([C@@H]5CCCN5C(=O)[C@@H](NC(=O)OC)C(C)C)[nH]4)cc2C32CC2)[nH]1)C(C)C` [Example 26]: the EC50 was below 1 nM.

On to `COC(=O)N[C@H](C(=O)N1CCC[C@H]1c1ncc(-c2cc3oc4ccc(-c5cnc([C@@H]6CCCN6C(=O)[C@H](NC(=O)OC)c6ccccc6)[nH]5)cc4c(=O)c3cc2F)[nH]1)C(C)C` [Example 27], for which the EC50 was below 1 nM. Then `COC(=O)N[C@H](C(=O)N1CCC[C@H]1c1ncc(-c2cc3oc4ccc(-c5cnc([C@@H]6CCCN6C(=O)[C@@H](NC(=O)OC)C6CCOCC6)[nH]5)cc4c(=O)c3cc2F)[nH]1)C(C)C` [Example 28], with below 1 nM; and `COC(=O)N[C@H](C(=O)N1CCC[C@H]1c1ncc(-c2cc3c(cc2F)Cc2cc(-c4cnc([C@@H]5CCCN5C(=O)[C@@H](NC(=O)OC)[C@@H](C)OC)[nH]4)ccc2O3)[nH]1)C(C)C` [Example 29], with below 1 nM.

The values above are taken from patent US8999967B2, “Tricyclic fused ring inhibitors of hepatitis C” (Presidio Pharmaceuticals, Inc., priority 2010, dated 2015).
